Converted amounts (≈) assume the structure as drawn.
How the values were obtained:
S. aureus MRO 00055 = assay: Agar Dilution Method MIC, S. aureus MRO 00055; type: cell-based; settings: Staphylococcus aureus, MRO00055, Mueller Hinton Agar, 35° Celsius, 20 hours, read-out: Minimum Inhibitory Concentration (MIC in μg/ml)
Experimental: (§1) Briefly, the compounds of invention were weighed, dissolved in Dimethyl Sulfoxide, serially diluted in the same solvent and then incorporated into molten Mueller Hinton Agar in a petridish before solidification, with each petridish containing a different concentration of a compound.
(§2) The Bacterial Inoculum was prepared by touching the tops of 3 to 5 well isolated bacterial colonies with the same morphological appearance from an 18 hour old culture with an inoculating loop, transfering the growth to a tube containing 5 ml of normal saline and adjusting the turbidity of the saline suspension to 0.5 Macfarland Turbidity Standard equivalent to a bacterial population of 1.5×10^8 colony forming units (CFU) per millilitre of suspension.
(§3) The bacterial inoculum prepared in the above manner was inoculated onto petri dishes containing Mueller Hinton Agar which had earlier been incorporated with different dilutions of the compounds of invention by a Multipoint Inoculator with each inoculum spot containing approximately 1×10^4 colony forming units (CFU) of bacteria.
(§4) The inoculated petridishes were incubated at 35° Celsius in an ambient atmosphere for 20 hours. Petridishes containing different concentrations of Vancomycin and Oxacillin and inoculated with Staphylococcus aureus, Coagulase Negative Staphylococci and Enterococci were incubated for 24 hours.

S. aureus MRO 00003 = assay: Agar Dilution Method MIC, S. aureus MRO 00003; type: cell-based; settings: Staphylococcus aureus, MRO00003, Mueller Hinton Agar, 35° Celsius, 20 hours, read-out: Minimum Inhibitory Concentration (MIC in μg/ml)
Experimental: as §1, §2, §3, §4

S. aureus MRO 00013 = assay: Agar Dilution Method MIC, S. aureus MRO 00013; type: cell-based; settings: Staphylococcus aureus, MRO00013, Mueller Hinton Agar, 35° Celsius, 20 hours, read-out: Minimum Inhibitory Concentration (MIC in μg/ml)
Experimental: as §1, §2, §3, §4

E. faecalis ATCC 29212 = assay: Agar Dilution Method MIC, E. faecalis ATCC 29212; type: cell-based; settings: Enterococcus faecalis, ATCC29212, Mueller Hinton Agar, 35° Celsius, 20 hours, read-out: Minimum Inhibitory Concentration (MIC in μg/ml)
Experimental: as §1, §2, §3, §4

S. aureus MRO 00001 = assay: Agar Dilution Method MIC, S. aureus MRO 00001; type: cell-based; settings: Staphylococcus aureus, MRO00001, Mueller Hinton Agar, 35° Celsius, 20 hours, read-out: Minimum Inhibitory Concentration (MIC in μg/ml)
Experimental: as §1, §2, §3, §4

S. epidermidis MRO 02046 = assay: Agar Dilution Method MIC, S. epidermidis MRO 02046; type: cell-based; settings: Staphylococcus epidermidis, MRO02046, Mueller Hinton Agar, 35° Celsius, 20 hours, read-out: Minimum Inhibitory Concentration (MIC in μg/ml)
Experimental: as §1, §2, §3, §4

[1] = test system: M. catarrhalis ATCC 43628; assay: Agar Dilution Method MIC, M. catarrhalis ATCC 43628; type: cell-based, Morexella catarrhalis; settings: Moraxella catarrhalis, ATCC43628, Mueller Hinton Agar, 35° Celsius, 20 hours, read-out: Minimum Inhibitory Concentration (MIC in μg/ml)
Experimental: as §1, §2, §3, §4

S. aureus MRO 00059 = assay: Agar Dilution Method MIC, S. aureus MRO 00059; type: cell-based; settings: Staphylococcus aureus, MRO00059, Mueller Hinton Agar, 35° Celsius, 20 hours, read-out: Minimum Inhibitory Concentration (MIC in μg/ml)
Experimental: as §1, §2, §3, §4

E. faecalis ATCC 51299 = assay: Agar Dilution Method MIC, E. faecalis ATCC 51299; type: cell-based; settings: Enterococcus faecalis, ATCC51299, Mueller Hinton Agar, 35° Celsius, 20 hours, read-out: Minimum Inhibitory Concentration (MIC in μg/ml)
Experimental: as §1, §2, §3, §4

S. aureus MRO 00030 = assay: Agar Dilution Method MIC, S. aureus MRO 00030; type: cell-based; settings: Staphylococcus aureus, MRO00030, Mueller Hinton Agar, 35° Celsius, 20 hours, read-out: Minimum Inhibitory Concentration (MIC in μg/ml)
Experimental: as §1, §2, §3, §4

S. aureus ATCC 29213 = assay: Agar Dilution Method MIC, S. aureus ATCC 29213; type: cell-based; settings: Staphylococcus aureus, ATCC29213, Mueller Hinton Agar, 35° Celsius, 20 hours, read-out: Minimum Inhibitory Concentration (MIC in μg/ml)
Experimental: as §1, §2, §3, §4

E. fecalis MRO 04045 = assay: Agar Dilution Method MIC, E. fecalis MRO 04045; type: cell-based; settings: Enterococcus faecalis, MRO04045, Mueller Hinton Agar, 35° Celsius, 20 hours, read-out: Minimum Inhibitory Concentration (MIC in μg/ml)
Experimental: as §1, §2, §3, §4

[2] = test system: M. catarrhalis ATCC 43617; assay: Agar Dilution Method MIC, M. catarrhalis ATCC 43617; type: cell-based, Morexella catarrhalis; settings: Moraxella catarrhalis, ATCC43617, Mueller Hinton Agar, 35° Celsius, 20 hours, read-out: Minimum Inhibitory Concentration (MIC in μg/ml)
Experimental: as §1, §2, §3, §4

[3] = test system: M. catarrhalis ATCC 43627; assay: Agar Dilution Method MIC, M. catarrhalis ATCC 43627; type: cell-based, Morexella catarrhalis; settings: Moraxella catarrhalis, ATCC43627, Mueller Hinton Agar, 35° Celsius, 20 hours, read-out: Minimum Inhibitory Concentration (MIC in μg/ml)
Experimental: as §1, §2, §3, §4

S. aureus ATCC 43300 = assay: Agar Dilution Method MIC, S. aureus ATCC 43300; type: cell-based; settings: Staphylococcus aureus, ATCC43300, Mueller Hinton Agar, 35° Celsius, 20 hours, read-out: Minimum Inhibitory Concentration (MIC in μg/ml)
Experimental: as §1, §2, §3, §4

S. aureus MRO 00048 = assay: Agar Dilution Method MIC, S. aureus MRO 00048; type: cell-based; settings: Staphylococcus aureus, MRO00048, Mueller Hinton Agar, 35° Celsius, 20 hours, read-out: Minimum Inhibitory Concentration (MIC in μg/ml)
Experimental: as §1, §2, §3, §4

SMILES | MIC (S. aureus MRO 00055) | MIC (S. aureus MRO 00003) | MIC (S. aureus MRO 00013) | MIC (E. faecalis ATCC 29212) | MIC (S. aureus MRO 00001) | MIC (S. epidermidis MRO 02046) | MIC [1] | MIC (S. aureus MRO 00059) | MIC (E. faecalis ATCC 51299) | MIC (S. aureus MRO 00030) | MIC (S. aureus ATCC 29213) | MIC (E. fecalis MRO 04045) | MIC [2] | MIC [3] | MIC (S. aureus ATCC 43300) | MIC (S. aureus MRO 00048) | melting point
CC(=S)NC[C@H]1CN(c2ccc(N3CCN(C(=S)Cc4cccs4)CC3)c(F)c2)C(=O)O1 [Example 13, (S)-N-[3-[3-Fluoro-4-[4-(thiophen-2-ylthioacetyl)piperazin-1-yl]phenyl]-2-oxooxazolidin-5-ylmethyl]thioacetamide] | 1 µg/mL (≈ 2.03 µM) | 1 µg/mL (≈ 2.03 µM) | 1 µg/mL (≈ 2.03 µM) | 0.5 µg/mL (≈ 1.01 µM) | 0.25 µg/mL (≈ 0.507 µM) | 0.25 µg/mL (≈ 0.507 µM) | 2 µg/mL (≈ 4.06 µM) | 0.5 µg/mL (≈ 1.01 µM) | 0.5 µg/mL (≈ 1.01 µM) | 0.5 µg/mL (≈ 1.01 µM) | 0.25 µg/mL (≈ 0.507 µM) | 1 µg/mL (≈ 2.03 µM) | 2 µg/mL (≈ 4.06 µM) | 2 µg/mL (≈ 4.06 µM) | 0.5 µg/mL (≈ 1.01 µM) | 0.25 µg/mL (≈ 0.507 µM) | –
CC(=S)NC[C@H]1CN(c2ccc(N3CCN(C(=S)c4ccc(C)s4)CC3)c(F)c2)C(=O)O1 [Example 7, (S)-N-[3-[3-Fluoro-4-[4-(5-methylthiophen-2-ylthiocarbonyl)piperazin-1-yl]phenyl]-2-oxooxazolidin-5-ylmethyl]thioacetamide] | 0.5 µg/mL (≈ 1.01 µM) | 0.5 µg/mL (≈ 1.01 µM) | 1 µg/mL (≈ 2.03 µM) | 0.5 µg/mL (≈ 1.01 µM) | 0.25 µg/mL (≈ 0.507 µM) | 0.25 µg/mL (≈ 0.507 µM) | 2 µg/mL (≈ 4.06 µM) | 0.5 µg/mL (≈ 1.01 µM) | 0.5 µg/mL (≈ 1.01 µM) | 0.5 µg/mL (≈ 1.01 µM) | 0.5 µg/mL (≈ 1.01 µM) | 0.5 µg/mL (≈ 1.01 µM) | 2 µg/mL (≈ 4.06 µM) | 2 µg/mL (≈ 4.06 µM) | 0.5 µg/mL (≈ 1.01 µM) | 0.5 µg/mL (≈ 1.01 µM) | –
CC(=S)NC[C@H]1CN(c2ccc(N3CCN(C(=S)c4ccc([N+](=O)[O-])o4)CC3)c(F)c2)C(=O)O1 [Example 5, (S)-N-[3-[3-Fluoro-4-[4-(5-nitrofuran-2-ylthiocarbonyl)piperazin-1-yl]phenyl]-2-oxooxazolidin-5-ylmethyl]thioacetamide] | 0.5 µg/mL (≈ 0.985 µM) | 0.5 µg/mL (≈ 0.985 µM) | 0.5 µg/mL (≈ 0.985 µM) | 0.5 µg/mL (≈ 0.985 µM) | 0.5 µg/mL (≈ 0.985 µM) | 0.25 µg/mL (≈ 0.493 µM) | 0.5 µg/mL (≈ 0.985 µM) | 0.5 µg/mL (≈ 0.985 µM) | 0.5 µg/mL (≈ 0.985 µM) | 0.5 µg/mL (≈ 0.985 µM) | 0.5 µg/mL (≈ 0.985 µM) | 1 µg/mL (≈ 1.97 µM) | 0.5 µg/mL (≈ 0.985 µM) | 1 µg/mL (≈ 1.97 µM) | 0.25 µg/mL (≈ 0.493 µM) | 0.25 µg/mL (≈ 0.493 µM) | –
CC(=O)NC[C@H]1CN(c2ccc(N3CCN(C(=S)CN)CC3)c(F)c2)C(=O)O1.Cl | – | – | – | – | – | – | – | – | – | – | – | – | – | – | – | – | 202 to 204 °C

Further compounds by falling MIC (S. aureus MRO 00055), results first:

MIC (S. aureus MRO 00055) | MIC (S. aureus MRO 00003) | MIC (S. aureus MRO 00013) | MIC (E. faecalis ATCC 29212) | MIC (S. aureus MRO 00001) | MIC (S. epidermidis MRO 02046) | MIC [1] | MIC (S. aureus MRO 00059) | MIC (E. faecalis ATCC 51299) | MIC (S. aureus MRO 00030) | MIC (S. aureus ATCC 29213) | MIC (E. fecalis MRO 04045) | MIC [2] | MIC [3] | MIC (S. aureus ATCC 43300) | MIC (S. aureus MRO 00048) | melting point | SMILES
0.5 µg/mL (≈ 0.974 µM) | 0.5 µg/mL (≈ 0.974 µM) | 0.5 µg/mL (≈ 0.974 µM) | 0.25 µg/mL (≈ 0.487 µM) | 0.25 µg/mL (≈ 0.487 µM) | 0.25 µg/mL (≈ 0.487 µM) | 2 µg/mL (≈ 3.9 µM) | 0.25 µg/mL (≈ 0.487 µM) | 0.25 µg/mL (≈ 0.487 µM) | 0.5 µg/mL (≈ 0.974 µM) | 0.5 µg/mL (≈ 0.974 µM) | 0.25 µg/mL (≈ 0.487 µM) | 2 µg/mL (≈ 3.9 µM) | 2 µg/mL (≈ 3.9 µM) | 0.25 µg/mL (≈ 0.487 µM) | 0.25 µg/mL (≈ 0.487 µM) | – | CC(=S)NC[C@H]1CN(c2ccc(N3CCN(C(=S)c4ccc(Cl)s4)CC3)c(F)c2)C(=O)O1 [Example 8, (S)-N-[3-[3-Fluoro-4-[4-(5-chlorothiophen-2-ylthiocarbonyl)piperazin-1-yl]phenyl]-2-oxooxazolidin-5-ylmethyl]thioacetamide]
0.5 µg/mL (≈ 1.05 µM) | 0.5 µg/mL (≈ 1.05 µM) | 0.5 µg/mL (≈ 1.05 µM) | 0.25 µg/mL (≈ 0.527 µM) | 0.25 µg/mL (≈ 0.527 µM) | 0.25 µg/mL (≈ 0.527 µM) | 2 µg/mL (≈ 4.21 µM) | 0.25 µg/mL (≈ 0.527 µM) | 0.25 µg/mL (≈ 0.527 µM) | 0.5 µg/mL (≈ 1.05 µM) | 0.5 µg/mL (≈ 1.05 µM) | 0.25 µg/mL (≈ 0.527 µM) | 2 µg/mL (≈ 4.21 µM) | 2 µg/mL (≈ 4.21 µM) | 0.25 µg/mL (≈ 0.527 µM) | 0.25 µg/mL (≈ 0.527 µM) | – | CC(=S)NC[C@H]1CN(c2ccc(N3CCN(C(=S)c4cnccn4)CC3)c(F)c2)C(=O)O1 [Example 14, (S)-N-[3-[3-Fluoro-4-[4-(pyrazin-2-ylthiocarbonyl)piperazin-1-yl]phenyl]-2-oxooxazolidin-5-ylmethyl]thioacetamide]
0.5 µg/mL (≈ 0.968 µM) | 0.5 µg/mL (≈ 0.968 µM) | 0.5 µg/mL (≈ 0.968 µM) | 0.25 µg/mL (≈ 0.484 µM) | 0.25 µg/mL (≈ 0.484 µM) | 0.25 µg/mL (≈ 0.484 µM) | 2 µg/mL (≈ 3.87 µM) | 0.5 µg/mL (≈ 0.968 µM) | 0.25 µg/mL (≈ 0.484 µM) | 0.5 µg/mL (≈ 0.968 µM) | 0.5 µg/mL (≈ 0.968 µM) | 0.25 µg/mL (≈ 0.484 µM) | 2 µg/mL (≈ 3.87 µM) | 2 µg/mL (≈ 3.87 µM) | 0.25 µg/mL (≈ 0.484 µM) | 0.25 µg/mL (≈ 0.484 µM) | – | CC(=S)NC[C@H]1CN(c2ccc(N3CCN(C(=O)Nc4ccc([N+](=O)[O-])cc4)CC3)c(F)c2)C(=O)O1 [Example 46]

Reference: US7217726B2, “Antibacterial agents” (Orchid Chemicals & Pharmaceuticals Limited, priority 2002, dated 2007)
